SMILES strings stand for the structures. Where two headings read alike, the source gives them in different places. Bounds are passed on as bounds.

In general, IC50 refers to the concentration at which inhibition is half-maximal. A higher IC50 goes with weaker potency. As a reminder, the inhibition is the change of the read-out against control, counted positive when it falls. The term EC50 denotes the concentration that produces a half-maximal response. Broadly, the viability is a per cent measure of how many cells are alive, often set against a control. The low end stands for a greater loss of cells, the high end for better survival. Usually NOAEL stands for the highest dose or exposure tested at which no adverse effect was seen.

Series [1] relates to SARS-CoV-2. Conditions: cited from earlier work.
Series [2] has as its system ZEB1. To be noted: Stewart 2020; cited from earlier work.
Series [3] relates to Ebola virus. To be noted: animal models (Dowall 2016); cited from earlier work.
For series [4], the system named is MER. To be noted: cultured cell assays; cited from earlier work.
The subject of series [5] is AXL. To be noted: cultured cell assays; cited from earlier work.
In series [6] the test system is virus infection of wild type bone marrow-derived dendritic cells. To be noted: wild type bone marrow-derived dendritic cells (Bhattacharyya 2013); cited from earlier work.
Series [7] deals with K562. Kind of series: Cellular proliferation, K562. It is filed as cell-based. To be noted: Homo sapiens.
In series [8] the test system is Salmonella tester strain TA98. Kind of series: Ames screening test, TA98. To be noted: TA98, with and without liver S9 metabolic activation. The series is classed as cell-based. The text has this:
(§1) In genotoxicity screening studies, SLC-391 was negative in Salmonella tester strains TA98 and TA100 (Ames screening test) with and without liver S9 metabolic activation.

Series [9] is described as follows: In vivo rat micronucleus assay. To be noted: 70 mg/kg/day (highest dose).
For series [10], the target named is RET (Homo sapiens, UniProt P07949). Kind of series: Radiometric phosphotransferase assay, panel of 320 protein kinases. It is filed as biochemical. The text has this: (§2) The selectivity of SLC-391 was further evaluated against a panel of 320 protein kinases from the human kinome using a radiometric phosphotransferase assay.
Chain of RET (P07949 29-1114): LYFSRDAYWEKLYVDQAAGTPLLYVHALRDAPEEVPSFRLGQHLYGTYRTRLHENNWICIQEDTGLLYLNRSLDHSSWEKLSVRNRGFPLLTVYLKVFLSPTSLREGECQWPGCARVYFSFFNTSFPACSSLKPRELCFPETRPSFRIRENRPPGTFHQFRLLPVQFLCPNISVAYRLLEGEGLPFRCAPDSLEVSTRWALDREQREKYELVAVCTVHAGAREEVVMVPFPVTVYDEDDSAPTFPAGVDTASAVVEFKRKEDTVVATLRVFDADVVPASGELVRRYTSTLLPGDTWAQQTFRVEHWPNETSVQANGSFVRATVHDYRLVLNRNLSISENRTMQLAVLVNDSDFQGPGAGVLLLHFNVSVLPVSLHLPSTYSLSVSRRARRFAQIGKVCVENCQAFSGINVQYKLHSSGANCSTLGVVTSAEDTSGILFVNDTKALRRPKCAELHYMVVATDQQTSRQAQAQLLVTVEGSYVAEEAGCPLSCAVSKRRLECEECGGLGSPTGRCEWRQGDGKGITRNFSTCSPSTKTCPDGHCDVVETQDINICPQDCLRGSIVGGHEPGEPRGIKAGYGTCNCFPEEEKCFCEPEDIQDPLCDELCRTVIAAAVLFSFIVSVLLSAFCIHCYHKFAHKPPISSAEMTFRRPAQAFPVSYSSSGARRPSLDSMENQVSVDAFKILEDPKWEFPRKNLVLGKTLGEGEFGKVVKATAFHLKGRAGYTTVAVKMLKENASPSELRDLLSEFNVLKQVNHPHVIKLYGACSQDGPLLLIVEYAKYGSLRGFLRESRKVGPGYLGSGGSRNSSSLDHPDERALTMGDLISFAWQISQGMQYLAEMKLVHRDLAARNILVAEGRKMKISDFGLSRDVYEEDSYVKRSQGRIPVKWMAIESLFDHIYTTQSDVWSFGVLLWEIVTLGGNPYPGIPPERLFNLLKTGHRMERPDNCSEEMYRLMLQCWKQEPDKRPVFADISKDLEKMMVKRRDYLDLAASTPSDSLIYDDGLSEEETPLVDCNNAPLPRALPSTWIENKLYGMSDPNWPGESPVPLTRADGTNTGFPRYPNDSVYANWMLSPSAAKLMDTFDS
The target in series [11] is ALK1 (Homo sapiens, UniProt P37023). The description is as above. The series is classed as biochemical.
Chain of ALK1 (P37023 142-503 limits assumed): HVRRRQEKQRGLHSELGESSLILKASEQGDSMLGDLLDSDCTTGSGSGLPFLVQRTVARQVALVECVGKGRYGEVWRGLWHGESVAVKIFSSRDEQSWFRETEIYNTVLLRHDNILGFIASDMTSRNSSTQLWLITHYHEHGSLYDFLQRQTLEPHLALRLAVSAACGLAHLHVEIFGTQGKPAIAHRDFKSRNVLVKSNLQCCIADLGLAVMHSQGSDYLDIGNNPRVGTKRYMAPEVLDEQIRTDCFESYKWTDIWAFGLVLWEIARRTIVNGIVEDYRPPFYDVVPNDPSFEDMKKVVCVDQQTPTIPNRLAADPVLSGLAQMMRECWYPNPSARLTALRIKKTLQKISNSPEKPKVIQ
Source text: as §2

The target of series [12] is c-MET (Homo sapiens, UniProt P08581). The description is as above. The series is classed as biochemical.
Source text: as §2

Series [13] addresses Aurora C (Homo sapiens, UniProt Q9UQB9). Described as above. The series is classed as biochemical.
Source text: as §2

The target in series [14] is ROS1 (Homo sapiens, UniProt P08922). Described as above. It is filed as biochemical.
Source text: as §2

Series [15] deals with EPHA6 (Homo sapiens, UniProt Q9UF33). The description is as above. It is filed as biochemical.
Chain of EPHA6 (Q9UF33 23-1036): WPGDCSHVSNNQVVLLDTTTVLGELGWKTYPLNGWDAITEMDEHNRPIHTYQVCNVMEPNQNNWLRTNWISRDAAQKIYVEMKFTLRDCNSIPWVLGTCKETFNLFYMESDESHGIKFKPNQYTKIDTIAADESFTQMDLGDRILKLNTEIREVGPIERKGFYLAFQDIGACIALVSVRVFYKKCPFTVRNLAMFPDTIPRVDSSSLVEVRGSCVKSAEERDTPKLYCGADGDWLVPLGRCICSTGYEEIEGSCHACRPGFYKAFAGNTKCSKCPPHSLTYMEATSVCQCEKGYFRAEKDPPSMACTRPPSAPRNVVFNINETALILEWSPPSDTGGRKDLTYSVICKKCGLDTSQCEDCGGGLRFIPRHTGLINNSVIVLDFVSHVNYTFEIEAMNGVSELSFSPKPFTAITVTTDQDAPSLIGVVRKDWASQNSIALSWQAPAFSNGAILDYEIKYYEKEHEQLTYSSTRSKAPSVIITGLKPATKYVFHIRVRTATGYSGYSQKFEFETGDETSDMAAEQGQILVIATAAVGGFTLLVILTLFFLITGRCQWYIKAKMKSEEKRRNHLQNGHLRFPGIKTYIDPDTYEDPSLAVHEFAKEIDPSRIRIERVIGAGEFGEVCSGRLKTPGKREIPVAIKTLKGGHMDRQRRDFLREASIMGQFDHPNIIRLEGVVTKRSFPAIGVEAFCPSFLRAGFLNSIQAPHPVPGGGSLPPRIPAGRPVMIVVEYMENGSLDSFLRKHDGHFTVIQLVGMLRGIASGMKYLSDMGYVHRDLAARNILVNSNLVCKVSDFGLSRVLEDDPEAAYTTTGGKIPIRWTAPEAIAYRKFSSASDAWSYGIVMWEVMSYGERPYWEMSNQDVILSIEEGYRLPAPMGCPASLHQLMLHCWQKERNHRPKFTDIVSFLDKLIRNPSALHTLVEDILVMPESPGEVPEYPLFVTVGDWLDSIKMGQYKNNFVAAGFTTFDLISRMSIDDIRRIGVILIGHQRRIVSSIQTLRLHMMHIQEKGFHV
Source text: as §2

Series [16] deals with NUAK1 (Homo sapiens, UniProt O60285). The series is described as above. The series is classed as biochemical.
Chain of NUAK1 (O60285 whole entry): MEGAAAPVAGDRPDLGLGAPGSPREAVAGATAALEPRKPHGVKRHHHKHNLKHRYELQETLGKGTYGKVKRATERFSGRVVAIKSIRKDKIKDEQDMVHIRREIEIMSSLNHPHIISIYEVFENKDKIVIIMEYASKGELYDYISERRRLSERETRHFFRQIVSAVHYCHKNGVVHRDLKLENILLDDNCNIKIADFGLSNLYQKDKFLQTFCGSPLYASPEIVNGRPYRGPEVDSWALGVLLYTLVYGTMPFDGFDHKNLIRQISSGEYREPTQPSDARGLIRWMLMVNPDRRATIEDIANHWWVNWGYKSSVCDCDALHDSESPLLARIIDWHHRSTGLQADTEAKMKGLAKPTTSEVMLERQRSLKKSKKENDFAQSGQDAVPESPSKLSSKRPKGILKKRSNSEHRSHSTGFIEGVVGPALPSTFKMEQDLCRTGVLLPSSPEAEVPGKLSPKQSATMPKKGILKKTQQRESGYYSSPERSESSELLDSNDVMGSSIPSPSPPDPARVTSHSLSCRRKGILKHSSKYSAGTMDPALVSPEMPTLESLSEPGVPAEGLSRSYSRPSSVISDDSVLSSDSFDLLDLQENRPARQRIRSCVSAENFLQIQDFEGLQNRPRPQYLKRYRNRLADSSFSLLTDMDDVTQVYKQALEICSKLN
Source text: as §2

Series [17] has as its system A549. Kind of series: Cell migration. It is filed as cell-based, human. Conditions: at 1 μM.
Series [18] relates to 4T1. Kind of series: Cellular proliferation, 4T1. It is filed as cell-based. To be noted: Mus musculus.
The subject of series [19] is Gas6-induced phosphorylation of Akt. Kind of series: Inhibition of Gas6-induced phosphorylation of Akt in A549. It is filed as cell-based. To be noted: human NSCLC cell line A549.
For series [20] the following is noted: in vivo, po.
Series [21] deals with Salmonella tester strain TA100. Kind of series: Ames screening test, TA100. The series is classed as cell-based. Conditions: TA100, with and without liver S9 metabolic activation.
Source text: as §1

The target in series [22] is hERG (Homo sapiens, UniProt Q12809). Kind of series: Standard hERG assay. The series is classed as biochemical. A general note: The hERG channel carries a current that helps repolarise heart muscle cells.
Series [23] has as its target T1, AXL (Homo sapiens, UniProt P30530). Kind of series: AXL kinase inhibition. The series is classed as biochemical.
Source text: as §2

The nature of series [24]: 28-day oral gavage GLP toxicology study in Sprague-Dawley rats.
Series [25] relates to tumor growth. Kind of series: In vivo tumor growth inhibition, oral administration. The text has this:
(§3) Significant in vivo pharmacology studies for SLC-391 have been completed in support of its oncology indication. The bioavailability of SLC-391 in vivo when administered orally (PO) (twice-daily [BID] and once-daily [QD]) were studied.

Series [26] deals with phosphorylated Akt. Kind of series: Phosphorylated Akt in tumor xenograft samples. The series is classed as in vivo. To be noted: oral administration.
Source text: as §3

The nature of series [27]: in vitro. To be noted: human.
Series [28] has as its target T2, VEGFR1 (Homo sapiens, UniProt P17948).
T2 construct: expressed in transfected cells; host or cells: BaF3
Kind of series: In vitro BaF3 cell assay, panel of 93 receptor tyrosine kinases. To be noted: at 100 nM. It is filed as cell-based.

The subject of series [29] is A549 cells. Kind of series: Anchorage-independent cell proliferation. Conditions: at 1 μM in A549 cells. The series is classed as cell-based, human.
Series [30] can be described thus: 28-day oral gavage GLP toxicology study in Beagle dogs.
In series [31] the test system is A549 cell invasion. Kind of series: Cell invasion. The series is classed as cell-based. Conditions: Homo sapiens.
In series [32] the target is T1, AXL. Kind of series: In vitro BaF3 cell assay, panel of 93 receptor tyrosine kinases. It is filed as cell-based. To be noted: at 100 nM. Also noted: expressed in transfected cells; host or cells: BaF3.
The test system of series [33] is human influenza virus (FluAPR834). Kind of series: microbe, parasite or virus in culture. Conditions: unidentified influenza virus, RPMI-2650, in Homo sapiens, 96 h, read-out: EC50 (inhibit CPE by 50%).
Series [34] in a line: in vitro. To be noted: human. This is another data set of the same source.
The target in series [35] is TYRO3 (Homo sapiens, UniProt Q06418). Kind of series: TYRO3 kinase inhibition. The series is classed as biochemical.
Source text: as §2

Series [36] is described as follows: Flowscreen genotoxicity assay. The series is classed as cell-based.
For series [37], the system named is SARS-CoV-2 spike protein binding to ACE2. The series is classed as cell-based, SARS-CoV-2 / human. To be noted: 1 μM, CHO-hACE2 cells, luciferase.
In series [38] the target is T3, FGFR3 (Homo sapiens, UniProt P22607).
T3 construct: expressed in transfected cells; host or cells: BaF3
Kind of series: In vitro BaF3 cell assay, panel of 93 receptor tyrosine kinases. It is filed as cell-based. Conditions: at 100 nM.

In series [39] the target is T4, MER (Homo sapiens, UniProt Q12866). Described as above. To be noted: at 100 nM. Also noted: expressed in transfected cells; host or cells: BaF3. The series is classed as cell-based.
T4 sequence (Q12866 21-999): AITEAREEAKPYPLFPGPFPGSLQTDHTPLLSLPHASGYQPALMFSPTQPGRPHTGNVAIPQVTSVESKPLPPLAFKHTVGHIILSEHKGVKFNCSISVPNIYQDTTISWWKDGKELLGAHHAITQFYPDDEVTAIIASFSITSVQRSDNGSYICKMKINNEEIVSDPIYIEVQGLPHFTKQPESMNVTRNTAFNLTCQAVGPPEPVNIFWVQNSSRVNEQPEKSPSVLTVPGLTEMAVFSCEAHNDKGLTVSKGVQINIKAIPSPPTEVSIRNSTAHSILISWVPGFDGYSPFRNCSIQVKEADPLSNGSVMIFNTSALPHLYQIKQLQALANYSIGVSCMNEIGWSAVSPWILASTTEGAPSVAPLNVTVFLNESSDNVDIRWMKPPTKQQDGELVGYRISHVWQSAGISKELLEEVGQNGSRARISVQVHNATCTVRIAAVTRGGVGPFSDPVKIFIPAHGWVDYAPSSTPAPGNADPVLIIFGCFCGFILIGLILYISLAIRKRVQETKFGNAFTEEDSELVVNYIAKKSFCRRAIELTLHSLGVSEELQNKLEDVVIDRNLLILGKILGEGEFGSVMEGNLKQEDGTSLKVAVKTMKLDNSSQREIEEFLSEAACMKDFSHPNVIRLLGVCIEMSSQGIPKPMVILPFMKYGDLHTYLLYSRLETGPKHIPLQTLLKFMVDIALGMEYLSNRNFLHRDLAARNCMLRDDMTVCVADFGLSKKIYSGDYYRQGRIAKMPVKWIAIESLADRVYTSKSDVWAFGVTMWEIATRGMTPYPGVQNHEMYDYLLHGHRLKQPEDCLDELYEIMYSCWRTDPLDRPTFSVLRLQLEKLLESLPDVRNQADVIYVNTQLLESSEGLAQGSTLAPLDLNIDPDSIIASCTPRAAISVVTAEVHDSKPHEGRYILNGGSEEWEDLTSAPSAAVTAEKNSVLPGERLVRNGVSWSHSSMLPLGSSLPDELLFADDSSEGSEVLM
Series [40] relates to influenza virus (Flu A). It is filed as cell-based. To be noted: for Fold of virus reduction: compared with virus control.
Series [41] is described as follows: Phase I study in subjects with solid tumors (SLC-391-101). Conditions: clinical drug product, oral.
The target of series [42] is T4, MER. Kind of series: MER kinase inhibition. The series is classed as biochemical.
Source text: as §2

Series [43] concerns human influenza virus (FluAPR834). To be noted: Flu A, RPMI2650 cells.
A short description of series [44]: in vivo. Conditions: both, Sprague-Dawley, rat.
Series [45] relates to SARS-CoV-2. It is filed as cell-based. To be noted: Vero E6 cells.
Setting [46] is: 28-day oral gavage, Beagle dogs.

T1 sequence (P30530 26-894): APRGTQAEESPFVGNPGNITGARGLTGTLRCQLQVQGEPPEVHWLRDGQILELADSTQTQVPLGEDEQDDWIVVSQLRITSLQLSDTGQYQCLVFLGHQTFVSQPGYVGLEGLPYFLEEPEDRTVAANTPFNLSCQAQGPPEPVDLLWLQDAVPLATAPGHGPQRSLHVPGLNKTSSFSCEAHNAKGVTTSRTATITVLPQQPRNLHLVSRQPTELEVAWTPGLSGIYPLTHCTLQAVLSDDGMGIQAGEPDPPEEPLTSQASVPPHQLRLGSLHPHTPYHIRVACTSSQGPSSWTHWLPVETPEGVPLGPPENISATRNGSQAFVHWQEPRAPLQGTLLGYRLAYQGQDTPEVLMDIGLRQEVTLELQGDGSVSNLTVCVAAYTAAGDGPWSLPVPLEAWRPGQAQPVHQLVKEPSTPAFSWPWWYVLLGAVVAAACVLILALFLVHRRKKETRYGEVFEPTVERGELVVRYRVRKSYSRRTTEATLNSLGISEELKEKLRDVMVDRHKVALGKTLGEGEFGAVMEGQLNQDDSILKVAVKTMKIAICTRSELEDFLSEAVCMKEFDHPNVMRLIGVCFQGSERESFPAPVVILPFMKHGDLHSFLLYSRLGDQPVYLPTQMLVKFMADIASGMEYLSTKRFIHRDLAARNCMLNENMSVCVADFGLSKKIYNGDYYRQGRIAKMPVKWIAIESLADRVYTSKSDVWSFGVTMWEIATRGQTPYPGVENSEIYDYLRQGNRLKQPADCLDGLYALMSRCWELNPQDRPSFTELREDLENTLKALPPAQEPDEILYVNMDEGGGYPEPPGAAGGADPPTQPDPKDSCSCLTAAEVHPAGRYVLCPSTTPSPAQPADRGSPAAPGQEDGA

Turning to `Nc1nc(Nc2ccc3c(c2)CC[C@@H](N2CCCC2)CC3)nn1-c1cc2c(nn1)-c1ccccc1CCC2` [BGB324], the “protection from SARS-CoV-2-induced cytopathic effect” value in [1] (preliminary in vitro studies) was “protect cells from SARS-CoV-2-induced cytopathic effect”. Also, the “inhibition of SARS-CoV-2 infection of cells” value in series [1] (subsequent studies) is reported as “potently inhibit SARS-CoV-2 infection of cells”. Further, in series [2], the “effect on ZEB1” value is on record as “downregulates ZEB1”. The “effect against lethal Ebola virus infection” value in series [3] is recorded as “had effect against lethal Ebola virus infection”.
Consider `CCOc1ccn(-c2ccc(F)cc2)c(=O)c1C(=O)Nc1ccc(Oc2ccnc(N)c2Cl)c(F)c1` [BMS-777607], for which the “concentrations effectively blocking Gas6-triggered receptor activation” value in [4] and in series [5] was 30 to 3600 nM each time. Besides, in series [6], the “susceptibility of treated dendritic cells to virus infection” value is listed as “much less susceptible to virus infection than untreated cells”.
In the case of `Nc1ncc(-c2cnn(C3CCNCC3)c2)cc1-c1nnc(CC2CC2)o1` [SLC-391, 3-(5-(cyclopropylmethyl)-1,3,4-oxadiazol-2-yl)-5-(1-(piperidin-4-yl)-1H-pyrazol-4-yl)pyridin-2-amine], the 50% inhibitory concentration (IC50) was determined as 3450 nM in series [7]; 28 nM in series [10]; 31 nM in series [11]; 12 nM in series [12]; 51 nM in series [13]; 23 nM in [14]. Further, the IC50 is 45 nM in [15]; 62 nM in series [16]; 1050 nM in series [18]; 290 nM in series [19]; greater than 30000 nM in [22]; 9.6 nM in [23]. Also, the IC50 amounted to 42.3 nM in series [35] and 63.5 nM in series [42]. In addition, the “Ames screening test result” value in series [8] and in series [21] was “negative” in each case. Further, the “genotoxic response, rat micronucleus assay” value in [9] is “potential genotoxic response was observed”. The “reduction of cell migration” value in series [17] is “less than 40%”. In [20], the “exposure in human subjects” value was “excellent exposure”. The molecule further showed a severe toxic dose in [24] (28-day rat GLP study, highest dose tested) of 70 mg/kg/day. For the same molecule, the “human equivalent dose (HED) of rat severe toxic dose” value in [24] (from 70 mg/kg/day in rat) amounted to 11.3 mg/kg. Moreover, the “tumor growth inhibition (TGI)” value in series [25] (50 mg/kg BID) stood at 60%; in series [25] (75 mg/kg BID), 67%. The “reduction in levels of phosphorylated Akt” value in [26] turned out to be 41%. Besides, the CC50 in series [27] was greater than 10000 nM. Also, the inhibition at 0.1 µM in series [28] was 64%; in [32] it was 69%; in series [38] it was 64%; in [39], 61%. In addition, the “impairment of anchorage-independent cell proliferation” value in series [29] is “complete inhibition”. For the same molecule, the HNSTD in [30] (28-day dog GLP toxicology study, as defined in ICH S9) worked out at 6 mg/kg/day. Moreover, the “effects on heart rate (HR)” value in series [30] (setting [46]) is “no effects”. Also, the “effects on respiratory parameters” value in series [30] (setting [46]) is recorded as “no SLC-391-related effects”. Further, the “effects on morphology of P-QRS-T complexes, PR interval, QT, QTc intervals, QRS complex duration” value in series [30] (28-day oral gavage, Beagle dogs, males and females) is reported as “no observable effects”. Further, in series [30] (from 6 mg/kg/day in dog), the “human equivalent dose (HED) of dog HNSTD” value worked out at 3.3 mg/kg. The molecule also returned an inhibition at 0.2 µM in series [31] of roughly 75%. For the same molecule, the EC50 in [33] stood at 140 nM. This molecule also displayed a viability at 0.003 µM in series [34] of 100%. The molecule also showed a viability at 0.4 µM in [34] of 95%. This molecule showed a viability at 10 µM in series [34] of 80%. The Flowscreen assay classification result in [36] was “potentially genotoxic with an aneugenic mechanism of action”. In addition, in series [37], the “neutralization of SARS-CoV-2 pseudovirus” value was “completely neutralize”. Moreover, the figures for the TCID50/mL in series [40] (0.003 uM), in [40] (0.4 uM) and in [40] (10 uM) were 19999 TCID50/mL, 9290 TCID50/mL and 731 TCID50/mL, respectively. Moreover, the “Fold of virus reduction” value in series [40] (0.003 uM) is 34.8 fold; in series [40] (0.4 uM), 74.9 fold; in series [40] (10 uM), 952.9 fold. The “tolerability in human subjects” value in series [41] was “well tolerated”. Also, the “therapeutic index (TI), TC50 divided by EC50” value in [43] is “above 71.4”. In [44], the NOAEL at 28 day is 30 mg/kg/day. In addition, the “inhibition of SARS-CoV-2 infection (qPCR cycles)” value in [45] (0.01 μM, for 24 hours) is on record as “effectively inhibit the viral infection”; in [45] (1 μM, up to 72 hours), “high degree of viral inhibition”.

Values taken from patent US20240100038A1, “USE OF THE AXL INHIBITOR SLC-391 AS ANTIVIRAL THERAPEUTIC AGENT” (SignalChem Lifesciences Corporation, priority 2021, published 2024).
